Eleven compounds from PubChem BioAssay (NCI) can be followed below.

Test systems include 786-0 renal; U251 CNS; K-562 leukemia; OVCAR-4 ovarian; MOLT-4 leukemia; OVCAR-5 ovarian; SK-MEL-28 melanoma; HCC-2998 colon; SF-295 CNS; RPMI-8226 leukemia.
Common to all, as to experiment: NCI-60 cell line screen, 48 h

“And” between values parts separate entries of the source, which are not always exact repeats. Equal values may be shown once.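 Compound exposure: 48 hours, 5 concentrations, 96-well plates. GI50 marks 50% less growth. TGI denotes the concentration required for complete inhibition of growth.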 A value given as a limit tells only on which side of the number the result lay.

As to `CCOC(=O)/C=C/c1ccc(C(=O)OCC)[nH]1`, the GI50 with 786-0 renal is 7.85 µM; with U251 CNS, 3.92 µM; in the experiment with K-562 leukemia, 0.649 µM; with OVCAR-4 ovarian, 20.3 µM; in the experiment on MOLT-4 leukemia it was 4.42 µM; in the experiment on OVCAR-5 ovarian, 19.5 µM. For the same compound, the GI50 was 33.7 µM in the experiment with SK-MEL-28 melanoma, 12.3 µM in the experiment on HCC-2998 colon, 3.5 µM with SF-295 CNS and 5.32 µM with RPMI-8226 leukemia. The TGI in the experiment on 786-0 renal, with U251 CNS, with K-562 leukemia, with OVCAR-4 ovarian, with MOLT-4 leukemia and with OVCAR-5 ovarian was more than 100 µM each time. Also, the TGI is more than 100 µM in the experiment on SK-MEL-28 melanoma, 77.3 µM in the experiment on HCC-2998 colon, 41.2 µM in the experiment with SF-295 CNS and more than 100 µM in the experiment on RPMI-8226 leukemia.
For the compound `CC(O)C(NC(=O)C(CS)NC(=O)C(CO)NC(=O)C(CCCCN)NC(=O)C(Cc1c[nH]c2ccccc12)NC(=O)C(Cc1ccc(O)cc1)NC(=O)C(CS)NC(=O)C(N)Cc1ccccc1)C(N)=O` (configuration not stated), the TGI in the experiment on 786-0 renal was > 25 µM and 79 µM; with U251 CNS it was > 25 µM and 63.1 µM; in the experiment on K-562 leukemia, > 25 µM and 32.1 µM; with OVCAR-4 ovarian, > 25 µM and 94.8 µM; with MOLT-4 leukemia, > 25 µM and 67.4 µM; in the experiment on OVCAR-5 ovarian, more than 25 µM. The TGI was 76.9 µM in the experiment on SK-MEL-28 melanoma; > 25 µM and 57.7 µM in the experiment on HCC-2998 colon; more than 25 µM with SF-295 CNS; > 25 µM and 47.8 µM in the experiment with RPMI-8226 leukemia. The GI50 with K-562 leukemia was 17.8 µM; in the experiment on OVCAR-4 ovarian, 26.6 µM; in the experiment with RPMI-8226 leukemia it was 22.3 µM.
Consider `COC(=O)C12C3C4C1C1C2C3C41I` (configuration not stated), for which the TGI with 786-0 renal, in the experiment with U251 CNS, in the experiment on K-562 leukemia, in the experiment with OVCAR-4 ovarian, in the experiment on MOLT-4 leukemia and with OVCAR-5 ovarian was more than 100 µM in each case. The TGI with SK-MEL-28 melanoma, in the experiment with HCC-2998 colon, in the experiment on SF-295 CNS and with RPMI-8226 leukemia was more than 100 µM each time.
Take `O=C1c2cccc3cc([N+](=O)[O-])cc(c23)C(=O)N1CCCN1CCN(CCCN2C(=O)c3cccc4cc([N+](=O)[O-])cc(c34)C2=O)CC1`: the TGI in the experiment on 786-0 renal was 5.55 µM; with U251 CNS it was 19.3 µM; with K-562 leukemia it was more than 100 µM; with OVCAR-4 ovarian, 5.96 µM; in the experiment on MOLT-4 leukemia, more than 100 µM; with OVCAR-5 ovarian, more than 100 µM. For the same compound, the TGI in the experiment with HCC-2998 colon is 54.3 µM; in the experiment with SF-295 CNS, 12.4 µM; with RPMI-8226 leukemia, more than 100 µM.
Regarding `O=C(N/N=C/c1ccc(F)cc1)c1[nH]c2ccc(I)cc2c1-c1ccccc1`, the GI50 with 786-0 renal was 0.475 µM; with U251 CNS it was 0.484 µM; in the experiment with K-562 leukemia it was 0.325 µM; with OVCAR-4 ovarian, 0.702 µM; with MOLT-4 leukemia, 1.24 µM; in the experiment on OVCAR-5 ovarian, 3.49 µM. Besides, the GI50 is 0.494 µM in the experiment with SK-MEL-28 melanoma, 0.888 µM in the experiment on HCC-2998 colon, 0.27 µM in the experiment with SF-295 CNS and 0.191 µM in the experiment on RPMI-8226 leukemia. The TGI with 786-0 renal was 10.7 µM; with U251 CNS, more than 37.9 µM; with OVCAR-4 ovarian it was more than 87.4 µM; in the experiment on MOLT-4 leukemia it was more than 36.9 µM; in the experiment with OVCAR-5 ovarian, more than 100 µM; in the experiment with SK-MEL-28 melanoma it was 55.4 µM. In addition, the TGI in the experiment with HCC-2998 colon came out at 12.5 µM; with SF-295 CNS it was 1.5 µM; in the experiment on RPMI-8226 leukemia, 0.639 µM.
Turning to `CC(=O)O/C(C)=C\C(=O)O/N=C(\N)c1ccc(C)cc1`, the TGI in the experiment with 786-0 renal was more than 100 µM; in the experiment on U251 CNS, 40.5 µM; with K-562 leukemia, 52.1 µM; in the experiment on OVCAR-4 ovarian, 64.5 µM; in the experiment on MOLT-4 leukemia, more than 100 µM; with OVCAR-5 ovarian, more than 100 µM. Further, the TGI in the experiment on SK-MEL-28 melanoma was 42.7 µM; in the experiment on HCC-2998 colon, more than 100 µM; in the experiment with SF-295 CNS, more than 100 µM; in the experiment on RPMI-8226 leukemia, more than 100 µM.
In the case of `COc1ccc(N=Cc2ccc(N(CCC#N)CCC#N)cc2)cc1`, the TGI in the experiment with 786-0 renal, in the experiment with U251 CNS, in the experiment with K-562 leukemia, with OVCAR-4 ovarian, in the experiment on MOLT-4 leukemia and in the experiment with OVCAR-5 ovarian was more than 100 µM throughout. Besides, the TGI in the experiment with SK-MEL-28 melanoma is more than 100 µM; in the experiment on HCC-2998 colon, more than 88.1 µM; in the experiment with SF-295 CNS, more than 100 µM; in the experiment on RPMI-8226 leukemia, more than 100 µM.
As for `COC(=O)c1ccc(OCc2ccc3oc(=O)c(-c4ccccc4)nc3c2)cc1`, the TGI in the experiment with 786-0 renal is 66.5 µM; in the experiment on U251 CNS it was more than 100 µM; in the experiment with K-562 leukemia, more than 100 µM; with OVCAR-4 ovarian, more than 100 µM; in the experiment on MOLT-4 leukemia, more than 100 µM; with OVCAR-5 ovarian, more than 100 µM. Besides, the TGI in the experiment on SK-MEL-28 melanoma, in the experiment with HCC-2998 colon, in the experiment with SF-295 CNS and with RPMI-8226 leukemia was more than 100 µM each time.
Regarding `CN(C)CCNC(=O)c1cc([N+](=O)[O-])cc2ccc(-c3ccccc3)nc12`, the TGI in the experiment on 786-0 renal is 94.3 µM; in the experiment with U251 CNS, 32 µM; in the experiment on K-562 leukemia it was 54.1 µM; in the experiment with OVCAR-4 ovarian it was 13 µM; in the experiment with OVCAR-5 ovarian, 27.6 µM; in the experiment with SK-MEL-28 melanoma, 27.4 µM. For the same compound, the TGI was 20.3 µM in the experiment with HCC-2998 colon, more than 57.3 µM with SF-295 CNS and 70.2 µM in the experiment on RPMI-8226 leukemia.
Consider `CN(C)CN1C(=O)S/C(=C2\C(=O)N(CN(C)C)c3ccccc32)C1=O`, for which the TGI in the experiment with 786-0 renal was more than 100 µM; with U251 CNS, more than 100 µM; with OVCAR-4 ovarian, more than 100 µM; in the experiment on MOLT-4 leukemia, 1.93 µM; in the experiment on OVCAR-5 ovarian, more than 100 µM; in the experiment with SK-MEL-28 melanoma, more than 100 µM. Besides, the TGI was more than 100 µM in the experiment with HCC-2998 colon, more than 100 µM in the experiment on SF-295 CNS and 54.8 µM in the experiment on RPMI-8226 leukemia.
On to `C=C(CNCCO)[C@@H]1CC[C@]2(CO)CC[C@]3(C)[C@H](CC[C@@H]4[C@@]5(C)CCC(NCCc6ccc(O)cc6)C(C)(C)[C@@H]5CC[C@]43C)[C@@H]12` (some centres not stated), for which the GI50 is 0.202 µM in the experiment on 786-0 renal; 0.278 µM in the experiment on U251 CNS; 1.44 µM in the experiment on OVCAR-4 ovarian; 0.339 µM in the experiment on MOLT-4 leukemia; 1.7 µM in the experiment on OVCAR-5 ovarian; 1.6 µM in the experiment on SK-MEL-28 melanoma. Also, the GI50 is 0.355 µM in the experiment on HCC-2998 colon, 1.51 µM in the experiment on SF-295 CNS and 1.02 µM with RPMI-8226 leukemia. Also, the TGI in the experiment on 786-0 renal was 0.523 µM; in the experiment with U251 CNS it was 0.717 µM; with OVCAR-4 ovarian, 3 µM; in the experiment with MOLT-4 leukemia, 1.36 µM; in the experiment with OVCAR-5 ovarian it was 3.29 µM; with SK-MEL-28 melanoma, 3.1 µM. Besides, the values for the TGI in the experiment on HCC-2998 colon, in the experiment with SF-295 CNS and in the experiment with RPMI-8226 leukemia were 1.43 µM, 2.96 µM and 3.13 µM, respectively.
